Experimental findings from patent US20100104659A1, “BENZOPYRANOPYRAZOLES” (priority 2006, published 2010) are described below.

Structures can show the parent of a compound that is named as a salt. Where only a bound is given, the exact number is not on record here.

The term melting point denotes the temperature, or range, at which the solid turns liquid.

One series deals with RKO human colon adenocarcinoma cells (RKOp27 subclone), proliferating.
Assay: not given
Conditions: not given
On to “(3RS,3aRS)-8-Fluoro-3-phenyl-3a,4-dihydro-3H-chromeno[4,3-c]pyrazole-2-carboxylic acid ((R)-1-isopropyl-piperidin-3-ylmethyl)-methyl-amide and (3RS,3aRS)-8-Fluoro-3-phenyl-3a,4-dihydro-3H-chromeno[4,3-c]pyrazole-2-carboxylic acid ((S)-1-isopropyl-piperidin-3-ylmethyl)-methyl-amide [Example 26]”, for which the “−log EC50 [mol/l] RKO p27 uninduced (proliferating), anti-proliferative/cytotoxic activity” value is listed as “(proliferating) ≧7.0 mol/l”. On the same count and under the same terms, the same measure for “(3RS,3aRS)-8-Fluoro-3-phenyl-3a,4-dihydro-3H-chromeno[4,3-c]pyrazole-2-carboxylic acid methyl-((R)-1-methyl-piperidin-3-ylmethyl)-amide and (3RS,3aRS)-8-Fluoro-3-phenyl-3a,4-dihydro-3H-chromeno[4,3-c]pyrazole-2-carboxylic acid methyl-((S)-1-methyl-piperidin-3-ylmethyl)-amide [Example 24]”: “(proliferating) ≧7.0 mol/l”.

The next series has the same test system. The series can be described thus: Alamar Blue cell viability assay, RKO p27 uninduced (proliferating). The note with it: RKOp27, 72 h, read-out: −log EC50 [mol/l] RKO p27 uninduced (proliferating), anti-proliferative/cytotoxic activity (converted). Background: The colour change of resazurin is a common sign of viable cells or microbes.
Experimental: The anti-proliferative/cytotoxic activity of the compounds described herein can be tested on subclones of RKO human colon adenocarcinoma cells (Schmidt et al., Oncogene 19, 2423-2429; 2000) using the Alamar Blue cell viability assay (described in O'Brien et al. Eur J Biochem 267, 5421-5426, 2000). The compounds are dissolved as 10 mM solutions in DMSO and subsequently diluted in semi-logarithmic steps. DMSO dilutions are further diluted 1:100 into Dulbecco's modified Eagle's medium (DMEM) containing 10% fetal calf serum to a final concentration twice as much as the final concentration in the test. RKO subclones are seeded into 96 well flat bottom plates at a density of 4000 cells per well in a volume of 50 μl per well. 24 hours after seeding the 50 μl each of the compound dilutions in DMEM medium are added into each well of the 96 well plate. Each compound dilution is tested as triplicates. Wells containing untreated control cells are filled with 50 μl DMEM medium containing 1% DMSO. The cells are then incubated with the substances for 72 hours at 37° C. in a humidified atmosphere containing 5% carbon dioxide. To determine the viability of the cells, 10 μl of an Alamar Blue solution (Biosource) are added and the fluorescence is measured at an extinction of 544 nm and an emission of 590 nm. For the calculation of the cell viability the emission value from untreated cells is set as 100% viability and the emission rates of treated cells are set in relation to the values of untreated cells. Viabilities are expressed as % values. The Graphpad Prism program (GraphPad Software, Inc) is used for the calculation of EC50 values for anti-proliferative/cytotoxic activity out of the obtained dose-response curves.
Each compound dilution is tested as triplicates. Wells containing untreated control cells are filled with 50 μl DMEM medium containing 1% DMSO. The cells are then incubated with the substances for 72 hours at 37° C. in a humidified atmosphere containing 5% carbon dioxide. To determine the viability of the cells, 10 μl of an Alamar Blue solution (Biosource) are added and the fluorescence is measured at an extinction of 544 nm and an emission of 590 nm. For the calculation of the cell viability the emission value from untreated cells is set as 100% viability and the emission rates of treated cells are set in relation to the values of untreated cells. Viabilities are expressed as % values. The Graphpad Prism program is used for the calculation of EC50 values out of the obtained dose-response curves. Viability is compared of proliferating cells grown in the absence of the inducer Ponasterone A, versus viability of cells arrested by the expression of ectopic p27Kip1 induced by Ponasterone A.
On to `CN(C)C(=O)N1N=C2c3cc(F)ccc3OC[C@@H]2[C@@H]1c1ccccc1` (racemic) [Example 7, (3RS,3aRS)-8-Fluoro-3-phenyl-3a,4-dihydro-3H-chromeno[4,3-c]pyrazole-2-carboxylic acid dimethylamide], for which the EC50 was 100 to 1000 nM. On to `CCN(C)C(=O)N1N=C2c3cc(F)ccc3OC[C@@H]2[C@@H]1c1ccccc1` (racemic) [Example 14, (3RS,3aRS)-8-Fluoro-3-phenyl-3a,4-dihydro-3H-chromeno[4,3-c]pyrazole-2-carboxylic acid ethyl-methyl-amide], for which the EC50 was 100 to 1000 nM. `CN(C(=O)N1N=C2c3cc(F)ccc3OC[C@@H]2[C@@H]1c1ccccc1)C1CCNCC1` (racemic) [Example 16, (3RS,3aRS)-8-Fluoro-3-phenyl-3a,4-dihydro-3H-chromeno[4,3-c]pyrazole-2-carboxylic acid methyl-piperidin-4-yl-amide]: the EC50 is no more than 100 nM. On the same count and under the same terms, the same measure for `O=C(N(C1CCNCC1)C1CC1)N1N=C2c3cc(F)ccc3OC[C@@H]2[C@@H]1c1ccccc1` (racemic) [Example 17, (3RS,3aRS)-8-Fluoro-3-phenyl-3a,4-dihydro-3H-chromeno[4,3-c]pyrazole-2-carboxylic acid cyclopropyl-piperidin-4-yl-amide]: 100 to 1000 nM.

`CCN(CCCN(C)C(=O)N1N=C2c3cc(F)ccc3OC[C@H]2[C@H]1c1ccccc1)CCOC` (racemic) [Example 56, (3SR,3aSR)-8-Fluoro-3-phenyl-3a,4-dihydro-3H-chromeno[4,3-c]pyrazole-2-carboxylic acid {3-[ethyl-(2-methoxy-ethyl)-amino]-propyl}-methyl-amide]: the EC50 was 100 to 1000 nM.

Consider `CCN(CCOC)CCN(C)C(=O)N1N=C2c3cc(F)ccc3OC[C@H]2[C@H]1c1ccccc1` (racemic) [Example 57, (3SR,3aSR)-8-Fluoro-3-phenyl-3a,4-dihydro-3H-chromeno[4,3-c]pyrazole-2-carboxylic acid {2-[ethyl-(2-methoxy-ethyl)-amino]-ethyl}-methyl-amide], for which the EC50 is 100 to 1000 nM. Still for that read-out and setting: the same measure for `CCN(CCO)CCN(C)C(=O)N1N=C2c3cc(F)ccc3OC[C@@H]2[C@@H]1c1ccccc1` (racemic) [Example 58, (3RS,3aRS)-8-Fluoro-3-phenyl-3a,4-dihydro-3H-chromeno[4,3-c]pyrazole-2-carboxylic acid {2-[ethyl-(2-hydroxy-ethyl)-amino]-ethyl}-methyl-amide]: no more than 100 nM; for `CCN(CCO)CCCN(C)C(=O)N1N=C2c3cc(F)ccc3OC[C@@H]2[C@@H]1c1ccccc1` (racemic) [Example 59, (3RS,3aRS)-8-Fluoro-3-phenyl-3a,4-dihydro-3H-chromeno[4,3-c]pyrazole-2-carboxylic acid {3-[ethyl-(2-hydroxy-ethyl)-amino]-propyl}-methyl-amide]: no more than 100 nM; for `CN(CCNC1CC1)C(=O)N1N=C2c3cc(F)ccc3OC[C@H]2[C@H]1c1ccccc1` (racemic) [Example 60, (3SR,3aSR)-8-Fluoro-3-phenyl-3a,4-dihydro-3H-chromeno[4,3-c]pyrazole-2-carboxylic acid (2-cyclopropylamino-ethyl)-methyl-amide]: 100 to 1000 nM. `CCNCCN(C)C(=O)N1N=C2c3cc(F)ccc3OC[C@H]2[C@H]1c1ccccc1` (racemic) [Example 62, (3SR,3aSR)-8-Fluoro-3-phenyl-3a,4-dihydro-3H-chromeno[4,3-c]pyrazole-2-carboxylic acid (2-ethylamino-ethyl)-methyl-amide]: the EC50 was 100 to 1000 nM. The same measure, in the same setting: the same measure for `C=CCN(C)CCN(C)C(=O)N1N=C2c3cc(F)ccc3OC[C@H]2[C@H]1c1ccccc1` (racemic) [Example 63, (3SR,3aSR)-8-Fluoro-3-phenyl-3a,4-dihydro-3H-chromeno[4,3-c]pyrazole-2-carboxylic acid [2-(allyl-methyl-amino)-ethyl]-methyl-amide]: 100 to 1000 nM. Same read-out and setting: the same measure for `C#CCN(C)CCN(C)C(=O)N1N=C2c3cc(F)ccc3OC[C@H]2[C@H]1c1ccccc1` (racemic) [Example 64, (3SR,3aSR)-8-Fluoro-3-phenyl-3a,4-dihydro-3H-chromeno[4,3-c]pyrazole-2-carboxylic acid methyl-[2-(methyl-prop-2-ynyl-amino)-ethyl]-amide]: 100 to 1000 nM. Same read-out and setting: the same measure for `CC1CCN(CCN(C)C(=O)N2N=C3c4cc(F)ccc4OC[C@H]3[C@H]2c2ccccc2)CC1` (racemic) [Example 65, (3SR,3aSR)-8-Fluoro-3-phenyl-3a,4-dihydro-3H-chromeno[4,3-c]pyrazole-2-carboxylic acid methyl-[2-(4-methyl-piperidin-1-yl)-ethyl]-amide]: 100 to 1000 nM; for `CC1CCN(CCCN(C)C(=O)N2N=C3c4cc(F)ccc4OC[C@H]3[C@H]2c2ccccc2)CC1` (racemic) [Example 66, (3SR,3aSR)-8-Fluoro-3-phenyl-3a,4-dihydro-3H-chromeno[4,3-c]pyrazole-2-carboxylic acid methyl-[3-(4-methyl-piperidin-1-yl)-propyl]-amide]: no more than 100 nM. In the case of `CN(C)C(=O)N1N=C2c3cc(F)ccc3OC[C@H]2[C@@H]1c1cccc(O)c1` (single isomer, unassigned) [Example 2b, (−)-cis-8-Fluoro-3-(3-hydroxy-phenyl)-3a,4-dihydro-3H-chromeno[4,3-c]pyrazole-2-carboxylic acid dimethylamide], the EC50 was no more than 100 nM. Take `CN1CCC(N(C)C(=O)N2N=C3c4cc(F)ccc4OC[C@@H]3[C@@H]2c2cccc(O)c2)CC1` (single isomer, unassigned) [Example 3, (3RS,3aRS)-8-Fluoro-3-(3-hydroxy-phenyl)-3a,4-dihydro-3H-chromeno[4,3-c]pyrazole-2-carboxylic acid methyl-(1-methyl-piperidin-4-yl)-amide]: the EC50 was no more than 100 nM. For the compound `CN(CCN)C(=O)N1N=C2c3cc(F)ccc3OC[C@@H]2[C@@H]1c1ccccc1` (stereo in doubt) [Example 18, (3RS,3aRS)-8-Fluoro-3-phenyl-3a,4-dihydro-3H-chromeno[4,3-c]pyrazole-2-carboxylic acid (2-amino-ethyl)-methyl-amide], the EC50 was no more than 100 nM. Same read-out and setting: the same measure for `CN(CCN)C(=O)N1N=C2c3cc(F)ccc3OC[C@H]2[C@H]1c1ccccc1` (stereo in doubt) [Example 18a, (3SR,3aSR)-8-Fluoro-3-phenyl-3a,4-dihydro-3H-chromeno[4,3-c]pyrazole-2-carboxylic acid (2-amino-ethyl)-methyl-amide]: no more than 100 nM; for `CN1CCC(N(C)C(=O)N2N=C3c4cc(F)ccc4OC[C@H]3[C@H]2c2ccccc2)CC1` [Example 9a, (3S,3aS)-8-Fluoro-3-phenyl-3a,4-dihydro-3H-chromeno[4,3-c]pyrazole-2-carboxylic acid methyl-(1-methyl-piperidin-4-yl)-amide]: no more than 100 nM; for `CN(C(=O)N1N=C2c3cc(F)ccc3OC[C@H]2[C@H]1c1ccccc1)C1CCNCC1` [Example 16a, (3S,3aS)-8-Fluoro-3-phenyl-3a,4-dihydro-3H-chromeno[4,3-c]pyrazole-2-carboxylic acid methyl-piperidin-4-yl-amide]: no more than 100 nM. The same measure, in the same setting: then `CN(C(=O)N1N=C2c3cc(F)ccc3OC[C@H]2[C@H]1c1cccc(O)c1)C1CCNCC1` [Example 27a, (3S,3aS)-8-Fluoro-3-(3-hydroxy-phenyl)-3a,4-dihydro-3H-chromeno[4,3-c]pyrazole-2-carboxylic acid methyl-piperidin-4-yl-amide], with no more than 100 nM.

System in the next series: not given
Assay: not given
Conditions: not given
The compound `CN(C)CCCN(C)C(=O)N1N=C2c3cc(F)ccc3OC[C@@H]2[C@@H]1c1cccc(O)c1` (racemic) (as salt: salt) [Example 6, (3RS,3aRS)-8-Fluoro-3-(3-hydroxy-phenyl)-3a,4-dihydro-3H-chromeno[4,3-c]pyrazole-2-carboxylic acid (3-dimethylamino-propyl)-methyl-amide] showed a melting point of 145 °C. Take `CN(C)CCN(C)C(=O)N1N=C2c3cc(F)ccc3OC[C@@H]2[C@@H]1c1ccccc1` (racemic) (as salt: salt) [Example 19, (3RS,3aRS)-8-Fluoro-3-phenyl-3a,4-dihydro-3H-chromeno[4,3-c]pyrazole-2-carboxylic acid (2-dimethylamino-ethyl)-methyl-amide]: the melting point is 248 to 250 °C. Same read-out and setting: then `CN(C)C(=O)N1N=C2c3cc(F)ccc3OC[C@@H]2[C@@H]1c1ccccc1` (racemic) [Example 7, (3RS,3aRS)-8-Fluoro-3-phenyl-3a,4-dihydro-3H-chromeno[4,3-c]pyrazole-2-carboxylic acid dimethylamide], with 117 °C. As to `CC(C)N(C)C(=O)N1N=C2c3cc(F)ccc3OC[C@@H]2[C@@H]1c1ccccc1` (racemic) [Example 13, (3RS,3aRS)-8-Fluoro-3-phenyl-3a,4-dihydro-3H-chromeno[4,3-c]pyrazole-2-carboxylic acid isopropyl-methyl-amide], the melting point was 102 to 105 °C.

In turn, `CCN(C)C(=O)N1N=C2c3cc(F)ccc3OC[C@@H]2[C@@H]1c1ccccc1` (racemic) [Example 14, (3RS,3aRS)-8-Fluoro-3-phenyl-3a,4-dihydro-3H-chromeno[4,3-c]pyrazole-2-carboxylic acid ethyl-methyl-amide] displayed a melting point of 133 to 137 °C. Same read-out and setting: the same measure for `CN(C(=O)N1N=C2c3cc(F)ccc3OC[C@@H]2[C@@H]1c1ccccc1)C1CCNCC1` (racemic) [Example 16, (3RS,3aRS)-8-Fluoro-3-phenyl-3a,4-dihydro-3H-chromeno[4,3-c]pyrazole-2-carboxylic acid methyl-piperidin-4-yl-amide]: 196 °C; for `O=C(N(C1CCNCC1)C1CC1)N1N=C2c3cc(F)ccc3OC[C@@H]2[C@@H]1c1ccccc1` (racemic) [Example 17, (3RS,3aRS)-8-Fluoro-3-phenyl-3a,4-dihydro-3H-chromeno[4,3-c]pyrazole-2-carboxylic acid cyclopropyl-piperidin-4-yl-amide]: 142 °C; for `CN(CCN)C(=O)N1N=C2c3cc(F)ccc3OC[C@@H]2[C@@H]1c1ccccc1` (stereo in doubt) [Example 18, (3RS,3aRS)-8-Fluoro-3-phenyl-3a,4-dihydro-3H-chromeno[4,3-c]pyrazole-2-carboxylic acid (2-amino-ethyl)-methyl-amide]: 113.2 °C.
